Where a SMILES comes first, the peptide text is derived from it. Bridges are numbered along the chain shown (N, C = ends). [ ]: non-standard residue; d: D form. The star is where a group is joined. ξ: configuration not given here. Phe(4-COOH) = N[C@@H](Cc1ccc(C(=O)O)cc1)C(=O)O; Bip = N[C@@H](Cc1ccc(-c2ccccc2)cc1)C(=O)O; Phe(3-Me) = Cc1cccc(C[C@H](N)C(=O)O)c1; Val(3-OH) = CC(C)(O)[C@H](N)C(=O)O; 3Thi = N[C@@H](Cc1ccsc1)C(=O)O; Cha = N[C@@H](CC1CCCCC1)C(=O)O; Ile(3ξ) = CCC(C)[C@H](N)C(=O)O; Thr(3ξ) = CC(O)[C@H](N)C(=O)O; Carboxymethyl = O=C(O)C*; NMeA = CN[C@@H](C)C(=O)O; Aun = NCCCCCCCCCCC(=O)O; Dab = NCC[C@H](N)C(=O)O; AEEA = NCCOCCOCC(=O)O
The compounds below were run against T1, PD-1/PD-L1 interaction (PE-labeled human PD-L1-Ig binding to Jurkat cell line over-expressing human PD-1) (Homo sapiens, UniProt Q15116) (assay: Jurkat-PD-1 Cell Binding High-Content Screening Assay (CBA)). Details: PE-labeled PD-L1-Ig 20 nM final, Jurkat-hPD-1 cells; read-out: Jurkat HPD1 PDL1 IC50.
T1 construct: expressed in transfected cells; host or cells: Jurkat
In short: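 Compound is added first to the PD-1-expressing Jurkat cells and held 2 h at 37 °C in serum-containing DMEM. The fluorescent PD-L1 fusion follows at 20 nM final for 1 h. Fixed, Hoechst-stained cells are then imaged for bound label.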

T1 sequence (Q15116 25-288): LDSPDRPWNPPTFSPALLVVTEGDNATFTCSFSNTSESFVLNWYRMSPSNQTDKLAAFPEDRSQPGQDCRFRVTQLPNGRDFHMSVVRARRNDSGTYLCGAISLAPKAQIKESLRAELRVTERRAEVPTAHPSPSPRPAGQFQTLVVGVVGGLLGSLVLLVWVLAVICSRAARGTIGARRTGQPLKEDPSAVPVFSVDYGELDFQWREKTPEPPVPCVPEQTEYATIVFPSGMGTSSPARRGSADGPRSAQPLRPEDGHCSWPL

Row | Structure (SMILES) | IC50 [nM]
1 | CCC(C)[C@@H]1NC(=O)[C@H](Cc2ccc(-c3ccccc3)cc2)NC(=O)[C@H](CC(C)C)NC(=O)[C@H](Cc2c[nH]c3ccccc23)NC(=O)[C@H](CC(=O)O)NC(=O)[C@H](Cc2ccc(OCC(=O)O)cc2)NC(=O)[C@H](Cc2ccsc2)NC(=O)CSC[C@@H](C(=O)N[C@@H](CCN)C(=O)NCCOCCOCC(=O)NCCCCCCCCCCC(=O)O)NC(=O)[C@H](CCC(=O)O)NC(=O)[C@H](C(C)(C)O)NC(=O)[C@H](CC2CCCCC2)NC(=O)[C@H](CCN)NC(=O)[C@@H](CC(C)C)NC(=O)[C@H](C)N(C)C1=O (stereo partly drawn) [Example 2510] ({CH2CO}-[3Thi]Y(Carboxymethyl)DWL[Bip][Ile(3ξ)][NMeA][dL][Dab][Cha][Val(3-OH)]EC[Dab][AEEA][Aun]-OH; thioether N-14) | 18.1
2 | Cc1cccc(C[C@@H]2NC(=O)[C@H](CC(=O)O)NC(=O)[C@H](Cc3ccc(OCC(=O)O)cc3)NC(=O)[C@H](C(C)C)NC(=O)CSC[C@@H](C(=O)N[C@@H](CCN)C(=O)NCCOCCOCC(=O)NCCCCCCCCCCC(=O)O)NC(=O)[C@H](CCC(=O)O)NC(=O)[C@H](C(C)(C)O)NC(=O)[C@H](CC3CCCCC3)NC(=O)[C@H](CCN)NC(=O)[C@@H](CC(C)C)NC(=O)[C@H](C)N(C)C(=O)[C@H](Cc3ccc(C(=O)O)cc3)NC(=O)[C@H](Cc3ccc(-c4ccccc4)cc3)NC(=O)[C@H](Cc3ccc(C(=O)O)cc3)NC2=O)c1 [Example 2511] ({CH2CO}-VY(Carboxymethyl)D[Phe(3-Me)][Phe(4-COOH)][Bip][Phe(4-COOH)][NMeA][dL][Dab][Cha][Val(3-OH)]EC[Dab][AEEA][Aun]-OH; thioether N-14) | 16.1
3 | Cc1cccc(C[C@@H]2NC(=O)[C@H](CC(=O)O)NC(=O)[C@H](Cc3ccc(OCC(=O)O)cc3)NC(=O)[C@H](Cc3ccsc3)NC(=O)CSC[C@@H](C(=O)N[C@@H](CCN)C(=O)NCCCCCCCCCCC(=O)O)NC(=O)[C@H](CO)NC(=O)[C@H](C(C)(C)O)NC(=O)[C@H](CC3CCCCC3)NC(=O)[C@H](CCN)NC(=O)[C@@H](CC(C)C)NC(=O)[C@H](C)N(C)C(=O)[C@H](Cc3ccc(C(=O)O)cc3)NC(=O)[C@H](Cc3ccc(-c4ccccc4)cc3)NC(=O)[C@H](Cc3ccc(C(=O)O)cc3)NC2=O)c1 [Example 2513] ({CH2CO}-[3Thi]Y(Carboxymethyl)D[Phe(3-Me)][Phe(4-COOH)][Bip][Phe(4-COOH)][NMeA][dL][Dab][Cha][Val(3-OH)]SC[Dab][Aun]-OH; thioether N-14) | 14.4
4 | CCC(C)[C@@H]1NC(=O)[C@H](Cc2ccc(-c3ccccc3)cc2)NC(=O)[C@H](C(C)C)NC(=O)[C@H](Cc2c[nH]c3ccccc23)NC(=O)[C@H](CC(=O)O)NC(=O)[C@H](Cc2ccc(OCC(=O)O)cc2)NC(=O)[C@H](Cc2cnc[nH]2)NC(=O)CSC[C@@H](C(=O)N[C@H](C)C(=O)NCCOCCOCC(=O)NCCCCCCCCCCC(=O)O)NC(=O)[C@H](C(C)O)NC(=O)[C@H](C(C)(C)O)NC(=O)[C@H](CC2CCCCC2)NC(=O)[C@H](CCN)NC(=O)[C@@H](CC(C)C)NC(=O)[C@H](C)N(C)C1=O (stereo partly drawn) [Example 2514] ({CH2CO}-HY(Carboxymethyl)DWV[Bip][Ile(3ξ)][NMeA][dL][Dab][Cha][Val(3-OH)][Thr(3ξ)]C[dA][AEEA][Aun]-OH; thioether N-14) | 16.8
5 | CCC(C)[C@@H]1NC(=O)[C@H](Cc2ccc(-c3ccccc3)cc2)NC(=O)[C@H](CC(C)C)NC(=O)[C@H](Cc2c[nH]c3ccccc23)NC(=O)[C@H](CC(=O)O)NC(=O)[C@H](Cc2ccc(OCC(=O)O)cc2)NC(=O)[C@H](Cc2ccc(OCC(=O)O)cc2)NC(=O)CSC[C@@H](C(=O)N[C@@H](CCN)C(=O)NCCOCCOCC(=O)NCCCCCCCCCCC(=O)O)NC(=O)[C@H](Cc2cnc[nH]2)NC(=O)[C@H](C(C)(C)O)NC(=O)[C@H](CC2CCCCC2)NC(=O)[C@H](CCN)NC(=O)[C@@H](CC(C)C)NC(=O)[C@H](C)N(C)C1=O (stereo partly drawn) [Example 2515] ({CH2CO}-Y(Carboxymethyl)Y(Carboxymethyl)DWL[Bip][Ile(3ξ)][NMeA][dL][Dab][Cha][Val(3-OH)]HC[Dab][AEEA][Aun]-OH; thioether N-14) | 3.1
6 | CC(C)C[C@@H]1NC(=O)[C@H](Cc2c[nH]c3ccccc23)NC(=O)[C@H](CC(=O)O)NC(=O)[C@H](Cc2ccc(OCC(=O)O)cc2)NC(=O)[C@H](Cc2ccc(OCC(=O)O)cc2)NC(=O)CSC[C@@H](C(=O)N[C@@H](CCN)C(=O)NCCOCCOCC(=O)NCCCCCCCCCCC(=O)O)NC(=O)[C@H](CCC(=O)O)NC(=O)[C@H](C(C)(C)O)NC(=O)[C@H](CC2CCCCC2)NC(=O)[C@H](CCN)NC(=O)[C@@H](CC(C)C)NC(=O)[C@H](C)N(C)C(=O)[C@H](CCC(N)=O)NC(=O)[C@H](Cc2ccc(-c3ccccc3)cc2)NC1=O [Example 2516] ({CH2CO}-Y(Carboxymethyl)Y(Carboxymethyl)DWL[Bip]Q[NMeA][dL][Dab][Cha][Val(3-OH)]EC[Dab][AEEA][Aun]-OH; thioether N-14) | 20.7
7 | CC(C)C[C@@H]1NC(=O)[C@H](Cc2c[nH]c3ccccc23)NC(=O)[C@H](CC(=O)O)NC(=O)[C@H](Cc2ccc(OCC(=O)O)cc2)NC(=O)[C@H](Cc2ccc(OCC(=O)O)cc2)NC(=O)CSC[C@@H](C(=O)N[C@@H](CCN)C(=O)NCCOCCOCC(=O)NCCOCCOCC(=O)NCCCCCCCCCCC(=O)O)NC(=O)[C@H](CCC(=O)O)NC(=O)[C@H](C(C)(C)O)NC(=O)[C@H](CC2CCCCC2)NC(=O)[C@H](CCN)NC(=O)[C@@H](CC(C)C)NC(=O)[C@H](C)N(C)C(=O)[C@H](CCC(N)=O)NC(=O)[C@H](Cc2ccc(-c3ccccc3)cc2)NC1=O [Example 2517] ({CH2CO}-Y(Carboxymethyl)Y(Carboxymethyl)DWL[Bip]Q[NMeA][dL][Dab][Cha][Val(3-OH)]EC[Dab][AEEA][AEEA][Aun]-OH; thioether N-14) | 30
8 | Cc1cccc(C[C@@H]2NC(=O)[C@H](CC(=O)O)NC(=O)[C@H](Cc3ccc(OCC(=O)O)cc3)NC(=O)[C@H](CCN)NC(=O)CSC[C@@H](C(=O)N[C@@H](CCN)C(=O)NCCOCCOCC(=O)NCCOCCOCC(=O)NCCCCCCCCCCC(=O)O)NC(=O)[C@H](CCC(=O)O)NC(=O)[C@H](C(C)(C)O)NC(=O)[C@H](CC3CCCCC3)NC(=O)[C@H](CCN)NC(=O)[C@@H](CC(C)C)NC(=O)[C@H](C)N(C)C(=O)[C@H](Cc3ccc(C(=O)O)cc3)NC(=O)[C@H](Cc3ccc(-c4ccccc4)cc3)NC(=O)[C@H](Cc3ccc(C(=O)O)cc3)NC2=O)c1 [Example 2518] ({CH2CO}-[Dab]Y(Carboxymethyl)D[Phe(3-Me)][Phe(4-COOH)][Bip][Phe(4-COOH)][NMeA][dL][Dab][Cha][Val(3-OH)]EC[Dab][AEEA][AEEA][Aun]-OH; thioether N-14) | 14.3
9 | Cc1cccc(C[C@@H]2NC(=O)[C@H](CC(=O)O)NC(=O)[C@H](Cc3ccc(C(=O)O)cc3)NC(=O)[C@H](CCN)NC(=O)CSC[C@@H](C(=O)N[C@@H](CCN)C(=O)NCCOCCOCC(=O)NCCOCCOCC(=O)NCCCCCCCCCCC(=O)O)NC(=O)[C@H](CCC(=O)O)NC(=O)[C@H](C(C)(C)O)NC(=O)[C@H](CC3CCCCC3)NC(=O)[C@H](CCN)NC(=O)[C@@H](CC(C)C)NC(=O)[C@H](C)N(C)C(=O)[C@H](Cc3ccc(C(=O)O)cc3)NC(=O)[C@H](Cc3ccc(-c4ccccc4)cc3)NC(=O)[C@H](Cc3ccc(C(=O)O)cc3)NC2=O)c1 [Example 2519] ({CH2CO}-[Dab][Phe(4-COOH)]D[Phe(3-Me)][Phe(4-COOH)][Bip][Phe(4-COOH)][NMeA][dL][Dab][Cha][Val(3-OH)]EC[Dab][AEEA][AEEA][Aun]-OH; thioether N-14) | 13.1
10 | Cc1cccc(C[C@@H]2NC(=O)[C@H](CC(=O)O)NC(=O)[C@H](Cc3ccc(OCC(=O)O)cc3)NC(=O)[C@H](CCN)NC(=O)CSC[C@@H](C(=O)N[C@@H](CCN)C(=O)NCCOCCOCC(=O)NCCOCCOCC(=O)NCCCCCCCCCCC(=O)O)NC(=O)[C@H](Cc3cnc[nH]3)NC(=O)[C@H](C(C)(C)O)NC(=O)[C@H](CC3CCCCC3)NC(=O)[C@H](CCN)NC(=O)[C@@H](CC(C)C)NC(=O)[C@H](C)N(C)C(=O)[C@H](Cc3ccc(OCC(=O)O)cc3)NC(=O)[C@H](Cc3ccc(-c4ccccc4)cc3)NC(=O)[C@H](Cc3ccc(OCC(=O)O)cc3)NC2=O)c1 [Example 2520] ({CH2CO}-[Dab]Y(Carboxymethyl)D[Phe(3-Me)]Y(Carboxymethyl)[Bip]Y(Carboxymethyl)[NMeA][dL][Dab][Cha][Val(3-OH)]HC[Dab][AEEA][AEEA][Aun]-OH; thioether N-14) | 8
11 | Cc1cccc(C[C@@H]2NC(=O)[C@H](CC(=O)O)NC(=O)[C@H](Cc3ccc(C(=O)O)cc3)NC(=O)[C@H](CCN)NC(=O)CSC[C@@H](C(=O)N[C@@H](CCN)C(=O)NCCOCCOCC(=O)NCCOCCOCC(=O)NCCCCCCCCCCC(=O)O)NC(=O)[C@H](CCC(=O)O)NC(=O)[C@H](C(C)C)NC(=O)[C@H](CC3CCCCC3)NC(=O)[C@H](CCN)NC(=O)[C@@H](CC(C)C)NC(=O)[C@H](C)N(C)C(=O)[C@H](Cc3ccc(C(=O)O)cc3)NC(=O)[C@H](Cc3ccc(-c4ccccc4)cc3)NC(=O)[C@H](Cc3ccc(C(=O)O)cc3)NC2=O)c1 [Example 2521] ({CH2CO}-[Dab][Phe(4-COOH)]D[Phe(3-Me)][Phe(4-COOH)][Bip][Phe(4-COOH)][NMeA][dL][Dab][Cha]VEC[Dab][AEEA][AEEA][Aun]-OH; thioether N-14) | 13.4
12 | CCC(C)[C@@H]1NC(=O)[C@H](Cc2ccc(-c3ccccc3)cc2)NC(=O)[C@H](C(C)C)NC(=O)[C@H](Cc2c[nH]c3ccccc23)NC(=O)[C@H](CC(=O)O)NC(=O)[C@H](Cc2ccc(C(=O)O)cc2)NC(=O)[C@H](Cc2ccc(OCC(=O)O)cc2)NC(=O)CSC[C@@H](C(=O)N[C@@H](CCN)C(=O)NCCOCCOCC(=O)NCCCCCCCCCCC(=O)O)NC(=O)[C@H](C(C)O)NC(=O)[C@H](C(C)(C)O)NC(=O)[C@H](CC2CCCCC2)NC(=O)[C@H](Cc2cnc[nH]2)NC(=O)[C@@H](CC(C)C)NC(=O)[C@H](C)N(C)C1=O (stereo partly drawn) [Example 2522] ({CH2CO}-Y(Carboxymethyl)[Phe(4-COOH)]DWV[Bip][Ile(3ξ)][NMeA][dL]H[Cha][Val(3-OH)][Thr(3ξ)]C[Dab][AEEA][Aun]-OH; thioether N-14) | 25.7

— patent US20260070945A1, “MACROCYCLIC IMMUNOMODULATORS” (Bristol-Myers Squibb Company, priority 2022, published 2026)
